Assays:
[1] = test system: human adiponectin gene promoter; experiment: Luciferase reporter screening assay in C2C12 cells stably expressing the adiponectin promoter construct; format: cell-based; details: for concentration at which the greatest transactivation of the target promoter was obtained (maximum activity): stable C2C12 adiponectin promoter-luciferase line, commercial activator (positive control), luciferase read 48 hours after stimulation
Experimental: To determine the luciferase activity, between 50000 and […] cells were seeded in each well and in a P24 plate in duplicate. After approximately 24 hours, the medium was removed from the cells and each well was washed with PBS 1x (because DMEM interferes in the measurement of the reporter gene activity). 100 µl of luciferase developing agent (Bright-GloTM Luciferase Assay system- Promega) were then added to each well. This reagent carries the reporter gene substrate and luminescence is generated as a product of the enzymatic reaction. […] To record the measurement of luciferase activity, the plate was shaken for 30 seconds right after adding the developing reagent and after 2 minutes, the volume was collected and transferred to a 96-well plate (P96), which was read in an illuminometer using the program with a duration of 5 seconds and the arbitrary luminescence units were recorded for each obtained clone or, in other words, for each stable cell line.
For the screening, 30000 cells per well were seeded in white P96 plates because these plates allow amplifying the luminescence signal and improving the reading. The cells were grown in 100 µl of hygromycin-free medium.
The cells were stimulated with the extracts 24 hours after the seeding in the following conditions: • cells to which only complete medium had been added (baseline transcription), • cells to which medium had been added in which the extracts to be assayed are dissolved (vehicle), • cells to which a known commercial activator of the target promoter had been added, thus having a positive control of the transcriptional activation and of the screening protocol and which are useful as a reference when screening those positive extracts increasing the activity of the promoters to be studied, because they provide an activation ratio which is calculated as follows: by dividing the average luminescence signal increase in the presence of the commercial activator by the average luminescence signal provided by the baseline activity of the target promoter in the presence of the vehicle. […]
The luciferase activity directed by the target promoters was developed 48 hours after the stimulation with the extracts, according to the protocol described in example 4, but modified such that once the medium was removed from the cells and they were washed with PBS 1x, 40 µl of luciferase developing reagent were added to each well and the plate was read after 2 minutes.
Luminescence values measured in RLUs (Relative Luciferase Units) obtained in the presence of each of the marine extracts which have been assayed were then plotted against the average luminescence signal obtained in baseline conditions (in the presence of the vehicle). […]

C2C12 cells = experiment: Toxicity of the commercial activators for the cells in the screening assay; format: cell-based, Mus musculus

For `O=c1c(-c2ccc(O)cc2)coc2cc(O)ccc12` [daidzein], the “potency in the screening assays (comparison in words)” value ([1]; comparison of commercial activators of the adiponectin promoter) was “more potent than RGZ”, the “concentration at which the greatest transactivation of the target promoter was obtained (maximum activity)” value (“concentration” for short) [1] was 20 µM and the “toxicity for the cells (comparison in words)” value (C2C12 cells) was “less toxic for the cells than Genistein”.

`O=c1c(-c2ccc(O)cc2)coc2cc(O)cc(O)c12` [genistein] was tested, and the “concentration” value [1] was 20 µM.

For `CN(CCOc1ccc(CC2SC(=O)NC2=O)cc1)c1ccccn1` (centres unmarked) [rosiglitazone], the “concentration” value [1] was 20 µM.
